Measurements published in ChEMBL document CHEMBL3044735, “Search of antimycobacterial activities in hybrid molecules with benzopyran skeleton” (2011).
Values after ≈ are worked out from the molar mass of the structure shown.

Legend:
[1] = tested on: Mycobacterium tuberculosis; experiment: Antimycobacterial activity against Mycobacterium tuberculosis H37Ra after 5 days by two-fold dilution method; assay type: functional; conditions: 120 h
[2] = tested on: Mycobacterium tuberculosis; experiment: Antimycobacterial activity against Mycobacterium tuberculosis H37Rv after 30 days by agar microdilution method; assay type: functional

Structure (SMILES)	MIC [1] [µg/mL]	MIC [2] [µg/mL]
CCOC(=O)[C@H]1N[C@@H](c2ccc(OC)cc2)[C@@H]([N+](=O)[O-])[C@@H]1c1ccc2c(c1)CCC(C)(C)O2 (relative stereo)	> 12.5	> 12.5
CCOC(=O)[C@H]1N[C@@H](c2ccccc2)[C@@H]([N+](=O)[O-])[C@@H]1c1ccc2c(c1)CCC(C)(C)O2 (relative stereo)	> 12.5	12.5 (≈ 29.4 µM)
CCCCCC#CC(c1ccc2c(c1)CCC(C)(C)O2)N1CCOCC1 (stereo unspecified)	> 12.5	3.12 (≈ 8.78 µM)
CC1(C)CCc2cc(C(C#Cc3ccccc3)N3CCOCC3)ccc2O1 (stereo unspecified)	> 12.5	12.5 (≈ 34.6 µM)
CCOC(=O)[C@H]1N[C@@H](c2ccc(OC)cc2)[C@@]2([N+](=O)[O-])C(c3ccc(OC)cc3)Oc3ccccc3[C@@H]12 (relative stereo)	> 12.5	> 12.5
CCOC(=O)[C@H]1N[C@@H](c2cccc([N+](=O)[O-])c2)[C@@H]([N+](=O)[O-])[C@@H]1c1ccc2c(c1)CCC(C)(C)O2 (relative stereo)	> 12.5	12.5 (≈ 26.6 µM)
CC[C@@H](CO)NCCN[C@@H](CC)CO [ETHAMBUTOL]		3.25 (≈ 15.9 µM)
CCOC(=O)[C@H]1N[C@@H](c2ccc([N+](=O)[O-])cc2)[C@@]2([N+](=O)[O-])C(c3ccc(OC)cc3)Oc3ccccc3[C@@H]12 (relative stereo)	> 12.5	12.5 (≈ 24.1 µM)
CCCCCCC#CC(c1ccc2c(c1)CCC(C)(C)O2)N1CCOCC1 (stereo unspecified)	> 12.5	
CC1(C)CCc2cc(C(C#Cc3ccccc3)N3CCCCC3)ccc2O1 (stereo unspecified)	> 12.5	6.25 (≈ 17.4 µM)
NNC(=O)c1ccncc1 [ISONIAZID]		0.75 (≈ 5.47 µM)
CCCCCCC#CC(c1ccc2c(c1)CCC(C)(C)O2)N1CCCCC1 (stereo unspecified)	> 12.5	1.56 (≈ 4.24 µM)
